In patent publication US20240217968A1, “PHARMACEUTICAL COMPOUND” (DUKE STREET BIO LIMITED, priority 2021, published 2024):

Target: T1, recombinant human Flag-tagged PARP7 (amino acids 456-657) (Homo sapiens, UniProt Q7Z3E1)
T1 construct: recombinant human Flag-tagged PARP7 (amino acids 456-657)
T1 sequence (Q7Z3E1 456-657): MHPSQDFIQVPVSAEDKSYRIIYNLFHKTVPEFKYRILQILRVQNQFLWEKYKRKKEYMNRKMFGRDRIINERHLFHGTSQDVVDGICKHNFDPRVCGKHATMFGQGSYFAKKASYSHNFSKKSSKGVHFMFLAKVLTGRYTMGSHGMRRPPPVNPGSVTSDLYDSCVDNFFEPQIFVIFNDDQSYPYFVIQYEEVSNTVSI
Assay: PARP7 biochemical DELFIA assay (auto-MARylation)
Conditions: DELFIA readout, IC50 class
In short: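 Readout is DELFIA time-resolved Eu fluorescence (Ex337 nm, Em620 nm) of biotin-ADP-ribose on immobilised Flag-tagged PARP7 456-657. Enzyme (12.5-37.5 nM as added) sat 30 min with compound before biotin-NAD+ (15 μM solution, pH 7.5 HEPES buffer) started 2-3 h room-temperature self-modification, stopped with excess NAD+.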

IC50 [nM] | Structure (SMILES)
≤ 100 | CC(COCCC(=O)N1CCN(c2ncc(C(F)(F)F)cn2)CC1)n1cc(C(F)(F)F)c2c(=O)[nH]ncc21 (single isomer, unassigned) [Compound 224, 1-(1-(3-oxo-3-(4-(5-(trifluoromethyl)pyrimidin-2-yl)piperazin-1-yl)propoxy)propan-2-yl)-3-(trifluoromethyl)-1,5-dihydro-4H-pyrrolo[2,3-d]pyridazin-4-one]
≤ 100 | CC(COCCn1nc(C(F)(F)F)c2c(=O)[nH]ncc21)C(=O)N1CCN(c2ncc(C(F)(F)F)cn2)CC1 (stereo not drawn) [Compound 201]
≤ 100 | CC(COCCC(=O)N1CCN(c2nnc(C(F)(F)F)[nH]2)CC1)n1nc(C(F)(F)F)c2c(=O)[nH]ncc21 (single isomer, unassigned) [Compound 393]
≤ 100 | O=C(CCOCCN1C(=O)CCc2c1cn[nH]c2=O)N1CCN(c2ncc(Cl)cn2)CC1 [Compound 242]
≤ 100 | CC(COCCC(=O)N1CCN(c2ncc(C#N)cn2)CC1)n1cc(C(F)F)c2c(=O)[nH]ncc21 (single isomer, unassigned) [Compound 439]
≤ 100 | N#Cc1ccc2nc(N3CCN(C(=O)CCOCCc4cccc5c(=O)[nH]ncc45)CC3)oc2c1 [Compound 192]
≤ 100 | CC(COCCC(=O)N1CCN(c2ncc(F)cn2)CC1)n1cc(C(F)(F)F)c2c(=O)[nH]ncc21 (single isomer, unassigned) [Compound 469]
1000 to 10000 | CN(C(=O)COCCc1cccc2c(=O)[nH]ncc12)C1CN(c2ncc(C(F)(F)F)cn2)C1 [Compound 109]
≤ 100 | CC(COCCC(=O)N1CCN(c2ncc(C(C)(C)C)cn2)CC1)n1nc(C(F)(F)F)c2c(=O)[nH]ncc21 (single isomer, unassigned) [Compound 501]
≤ 100 | O=C(c1cccc(Cc2cccc3c(=O)[nH]ncc23)c1)N1CCN(c2ncc(C(F)(F)F)cn2)CC1 [Compound 25]
≤ 100 | CC(COCCn1ncc2c(=O)[nH]ncc21)C(=O)N1CCN(c2ncc(C(F)(F)F)cn2)CC1 (stereo not drawn) [Compound 155]
≤ 100 | CC(COCC(=O)NC1CCN(c2ncc(C(F)(F)F)cn2)CC1)n1cc(C(F)(F)F)c2c(=O)[nH]ncc21 (stereo not drawn) [Compound 458]
≤ 100 | CC1CN(C(=O)CCOCCN2C(=O)CCc3c2cn[nH]c3=O)CCN1c1ncc(C(F)(F)F)cn1 (stereo not drawn) [Compound 309]
≤ 100 | CC(COCCC(=O)N1CCN(c2ccc(C(F)F)cn2)CC1)n1nc(C(F)(F)F)c2c(=O)[nH]ncc21 (stereo not drawn) [Compound 343]
≤ 100 | COc1cnc(N2CCN(C(=O)CCOCC(C)n3nc(C(F)(F)F)c4c(=O)[nH]ncc43)CC2)nc1 (single isomer, unassigned) [Compound 331]
≤ 100 | CC(COCCC(=O)N1CCN(c2ccc(F)cn2)CC1)n1nc(C(F)(F)F)c2c(=O)[nH]ncc21 (stereo not drawn) [Compound 347]
100 to 1000 | O=C(CCOCCN1CCc2c1cn[nH]c2=O)N1CCN(c2ncc(C(F)(F)F)cn2)CC1 [Compound 6]
≤ 100 | CC(COCCC(=O)N1CCN(c2cc(Cl)c(F)cn2)CC1)n1nc(C(F)(F)F)c2c(=O)[nH]ncc21 (single isomer, unassigned) [Compound 444]
100 to 1000 | CN(CCCC(=O)N1CCN(c2ncc(C(F)(F)F)cn2)CC1)Cc1cccc2c(=O)[nH]ncc12 [Compound 167]
1000 to 10000 | N#Cc1ccc(N2CCN(C(=O)c3cccc(Cc4cccc5c(=O)[nH]ncc45)c3)CC2)cc1 [Compound 26]
≤ 100 | O=C(CCOCCn1nc(C(F)(F)F)c2c(=O)[nH]ncc21)N1CCN(c2nc3ccc(Cl)cc3o2)CC1 [Compound 191]
≤ 100 | CC1CN(c2ncc(C(F)(F)F)cn2)CCN1C(=O)CCOCCn1ncc2c(=O)[nH]ncc21 (stereo not drawn) [Compound 142]
1000 to 10000 | O=C(Cn1nc(C(F)(F)F)c2c(=O)[nH]ncc21)N1CCC(C(=O)N2CCN(c3ncc(C(F)(F)F)cn3)CC2)C1 (stereo not drawn) [Compound 442]
≤ 100 | CC(COCCC(=O)N1CCN(c2ncc(C#N)cn2)CC1)n1cc(C(F)F)c2c(=O)[nH]ncc21 (stereo not drawn) [Compound 440]
100 to 1000 | CC(COCCC(=O)N1CCN(c2ccc(C3COC3)cn2)CC1)n1nc(C(F)(F)F)c2c(=O)[nH]ncc21 (single isomer, unassigned) [Compound 311]
≤ 100 | CC(COCCC(=O)N1CCN(c2ccc(C(C)(F)F)cn2)CC1)n1cc(C(F)(F)F)c2c(=O)[nH]ncc21 (single isomer, unassigned) [Compound 484]
1000 to 10000 | N#Cc1ccc(N2CCN(C(=O)c3cccc(OCc4cccc5c(=O)[nH]ncc45)c3)CC2)nc1 [Compound 93]

IC50 [nM] | Structure (SMILES)
100 to 1000 | CC(COCCC(=O)N1CCN(c2ncc(C(F)(F)F)cn2)CC1)c1cc(Cl)cc2c(=O)[nH]ncc12 (stereo not drawn) [Compound 162]
≤ 100 | O=C(CCOCCn1c(=O)ccc2c(=O)[nH]ncc21)N1CCN(c2ncc(C(F)(F)F)cn2)CC1 [Compound 413]
≤ 100 | N#Cc1cnc(N2CCN(C(=O)CCOCCn3cc(C(F)(F)F)c4c(=O)[nH]ncc43)CC2)s1 [Compound 487]
≤ 100 | CC(COCCC(=O)N1CCN(c2ncc(F)cn2)CC1)n1cc(C(F)(F)F)c2c(=O)[nH]ncc21 (single isomer, unassigned) [Compound 468]
≤ 100 | CC(COCCC(=O)N1CCN(c2ccc(Cl)cn2)CC1)n1nc(C(F)(F)F)c2c(=O)[nH]ncc21 (stereo not drawn) [Compound 212]
≤ 100 | CC1CN(c2ncc(C(F)(F)F)cn2)CCN1C(=O)CCOCCn1cc(C(F)(F)F)c2c(=O)[nH]ncc21 (single isomer, unassigned) [Compound 370]
1000 to 10000 | O=C(c1cccc(Cc2cccc3c(=O)[nH]ncc23)c1)N1CCN(C(=O)C2CC2)CC1 [Compound 2]
≤ 100 | O=C(CCOCCc1cccc2c(=O)[nH]ncc12)N1CCN(c2ccc(C(F)F)cn2)CC1 [Compound 97]
≤ 100 | CC(COCCC(=O)N1CCN(c2ccc(C#N)cn2)CC1)n1nc(C(F)F)c2c(=O)[nH]ncc21 (single isomer, unassigned) [Compound 437]
≤ 100 | O=C(COCCc1cccc2c(=O)[nH]ncc12)NC1CCN(c2ncc(C(F)(F)F)cn2)CC1 [Compound 107]
≤ 100 | CC1CN(c2ncc(C(F)(F)F)cn2)CCN1C(=O)CCOCCc1cccc2c(=O)[nH]ncc12 (stereo not drawn) [Compound 87]
≤ 100 | Cc1ccc(CCOCCC(=O)N2CCN(c3ncc(C(F)(F)F)cn3)CC2)c2cn[nH]c(=O)c12 [Compound 217]
≤ 100 | CC(COCC(=O)NC1CCN(c2ncc(C(F)(F)F)cn2)CC1)n1nc(C(F)(F)F)c2c(=O)[nH]ncc21 (single isomer, unassigned) [Compound 479, 2-(2-(4-oxo-3-(trifluoromethyl)-4,5-dihydro-1H-pyrazolo[3,4-d]pyridazin-1-yl)propoxy)-N-(1-(5-(trifluoromethyl)pyrimidin-2-yl)piperidin-4-yl) acetamide]
≤ 100 | CC(COCCC(=O)N1CCN(c2ncc(C(F)(F)F)cn2)CC1)n1c(=O)n(C)c2c(=O)[nH]ncc21 (stereo not drawn) [Compound 397]
≤ 100 | CC(COCCC(=O)N1CCN(c2ncc(F)cc2F)CC1)n1nc(C(F)(F)F)c2c(=O)[nH]ncc21 (stereo not drawn) [Compound 349]
≤ 100 | CC(COCCC(=O)N1CCN(c2ncc(C(F)(F)F)cn2)CC1)n1cc(C(F)F)c2c(=O)[nH]ncc21 (single isomer, unassigned) [Compound 396, 3-(difluoromethyl)-1-(1-(3-oxo-3-(4-(5-(trifluoromethyl)pyrimidin-2-yl)piperazin-1-yl)propoxy)propan-2-yl)-1,5-dihydro-4H-pyrrolo[2,3-d]pyridazin-4-one]
100 to 1000 | O=C1NC(=O)c2c(CCOCCC(=O)N3CCN(c4ncc(C(F)(F)F)cn4)CC3)cccc21 [Compound 121]
≤ 100 | CC(COCC(=O)NC1CCN(c2ncc(C(F)(F)F)cn2)CC1)n1cc(C(F)(F)F)c2c(=O)[nH]ncc21 (single isomer, unassigned) [Compound 459]
≤ 100 | CC(COCCC(=O)N1CCN(c2cc(F)c(F)cn2)CC1)n1nc(C(F)(F)F)c2c(=O)[nH]ncc21 (single isomer, unassigned) [Compound 419]
≤ 100 | O=C(CCOCCc1c(F)ccc2c(=O)[nH]ncc12)N1CCN(c2ncc(C(F)(F)F)cn2)CC1 [Compound 229]
≤ 100 | Cc1nn(CCOCCC(=O)N2CCN(c3ncc(C(F)(F)F)cn3)CC2C)c2cn[nH]c(=O)c12 (stereo not drawn) [Compound 268]
100 to 1000 | Cc1nc2c(=O)[nH]ncc2n1CCOCCC(=O)N1CCN(c2ncc(C(F)(F)F)cn2)CC1 [Compound 170]
≤ 100 | O=C(CCOCCn1cc(C(F)(F)F)c2c(=O)[nH]ncc21)N1CCN(c2nc(C(F)(F)F)co2)CC1 [Compound 363]
1000 to 10000 | O=C(c1cccc(Cc2cccc3c(=O)[nH]c(=O)[nH]c23)c1)N1CCN(C(=O)C2CC2)CC1 [Compound 19]
≤ 100 | O=C(CCOCCc1cccc2c(=O)[nH]ncc12)N1CCN(c2nc3ccc(Cl)cc3o2)CC1 [Compound 205]
≤ 100 | O=C(CCOCCc1cccc2c(=O)[nH]ncc12)N1CCN(c2ccc(Cl)cn2)CC1 [Compound 96]

Structure (SMILES) | IC50 [nM]
O=C(CCCOC(c1cccc2c(=O)[nH]ncc12)C(F)(F)F)N1CCN(c2ncc(C(F)(F)F)cn2)CC1 (single isomer, unassigned) [Compound 222, 5-(2,2,2-trifluoro-1-(4-oxo-4-(4-(5-(trifluoromethyl)pyrimidin-2-yl)piperazin-1-yl)butoxy)ethyl)phthalazin-1(2H)-one] | 100 to 1000
